From US7812025B2, “Brain/neuronal cell-protecting agent and therapeutic agent for sleep disorder” (Takeda Pharmaceutical Company Limited, priority 2005, dated 2010)

molecular target: T1, Human FAAH (Homo sapiens, UniProt O00519); test: Measurement of FAAH inhibitory activity (enzyme fraction from CHO-K1/human FAAH, substrate anandamide [ethanolamine 1-3H]); format: biochemical; conditions: 1 μM test compound; 25 nM anandamide [ethanolamine 1-3H]; 60 ng enzyme fraction; 37° C. for 30 minutes; pH 9.0; read-out: Human FAAH Inhibition Rate at 1 μM (%)
T1 construct: made in house; 10000 g pellet suspended in M-PER
T1 sequence (O00519 1-579): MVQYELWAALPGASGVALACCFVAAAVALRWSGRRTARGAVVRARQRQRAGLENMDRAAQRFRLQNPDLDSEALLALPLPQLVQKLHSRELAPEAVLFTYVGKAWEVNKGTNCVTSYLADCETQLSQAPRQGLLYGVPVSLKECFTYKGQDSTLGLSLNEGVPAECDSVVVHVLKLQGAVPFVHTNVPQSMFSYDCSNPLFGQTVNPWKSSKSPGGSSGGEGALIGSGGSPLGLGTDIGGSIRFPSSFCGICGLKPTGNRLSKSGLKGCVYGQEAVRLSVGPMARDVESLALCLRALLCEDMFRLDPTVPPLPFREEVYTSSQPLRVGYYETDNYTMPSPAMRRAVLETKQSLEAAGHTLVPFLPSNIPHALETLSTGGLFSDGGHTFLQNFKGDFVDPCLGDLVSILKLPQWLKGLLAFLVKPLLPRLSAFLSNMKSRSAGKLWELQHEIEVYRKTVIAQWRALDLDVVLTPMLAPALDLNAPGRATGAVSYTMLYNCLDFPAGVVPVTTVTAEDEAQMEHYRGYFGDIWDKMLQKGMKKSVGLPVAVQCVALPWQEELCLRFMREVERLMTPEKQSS
Method: Measurement of FAAH Inhibitory Activity
(1) Preparation of Enzyme Fraction
The FAAH gene was cloned by PCR. That is, a human brain library was used as a cDNA library, 5′-[…]-3′ [SEQ ID NO:1] and 5′-[…]-3′ [SEQ ID NO:2] were used as a primer set, and KOD DNA polymerase (Toyobo Co., Ltd.) was used as a DNA polymerase. One cycle of the reaction comprises 95° C. for 30 sec, 55° C. for 30 sec and 72° C. for 2 min, and 45 cycles of the reaction was carried out to obtain an amplified fragment. The amplified fragment was cleaved with restriction enzymes EcoRI and SalI, and then was inserted into a pMSRα vector which had been cleaved with the same restriction enzymes EcoRI and SalI to obtain a pMSRα-human FAAH. A cell line CHO-K1 and the above-obtained plasmid were subjected to a method known per se to prepare the cell line CHO-K1/human FAAH in which human FAAH was stably expressed. The CHO-K1/human FAAH was cultured in a CO2 incubator at 37° C., using a medium (Ham's F-12 medium supplemented with final concentration 10% of fetal bovine serum (FBS) and final concentration 800 μg/ml of G418), and then the cells were harvested. After washing with PBS, the cells were suspended in a buffer (10 mM Tris, 1 mM EDTA and 10 mM MgCl2, all at final concentrations) and disrupted with a Polytron homogenizer. After centrifugation at 900 g, the supernatant was recovered and further centrifuged at 10000 g. A pellet obtained therefrom was suspended in M-PER (Catalog No. 78501; PIERCE) to give an enzyme fraction.
Using a white walled 96-well plate (Coster Corp.), the test compound at various concentrations, 60 ng of the enzyme fraction and the substrate anandamide [ethanolamine 1-^3H] (final concentration 25 nM) were reacted in 50 μl of a reaction buffer (125 mM Tris-HCl (pH 9.0), 1 mM EDTA, 0.4 mM HEPES, 0.2% glycerol and 0.02% Triton X-100, all at final concentrations) at 37° C. for 30 minutes. The reaction mixture was transferred to a 96-well MultiScreen-HA filter plate (Millipore Corp.) and then was left to stand overnight at room temperature in order to allow the unreacted substrate to be adsorbed on the filter. The plate was washed with PBS using a MultiScreen Vacuum Manifold (Millipore Corp.) and dried. To each well, 50 μl of liquid scintillation cocktail was added and stirred, and then counting was performed with a TopCount (Perkin-Elmer Corp.). The count of a sample containing a solvent instead of the test compound was taken as 0%, and the count at zero time was taken as 100%, to calculate the inhibitory activity of the compound.

Point of comparison: `Cc1noc(NC(=O)N2CCN(c3cccc(-c4ccsc4)c3)CC2)c1C` [Example 11, N-(3,4-Dimethylisoxazol-5-yl)-4-[3-(3-thienyl)phenyl]piperazine-1-carboxamide], inhibition at 1 µM 100%. Against it:
- O=C(Nc1cccnn1)N1CCN(c2cccc(-c3ccccc3)c2)CC1 [Example 9, 4-Biphenyl-3-yl-N-pyridazin-3-ylpiperazine-1-carboxamide] — higher, 105%
- Cc1noc(NC(=O)N2CCN(c3cccc(-c4ccccc4)c3)CC2)c1C [Example 2, 4-Biphenyl-3-yl-N-(3,4-dimethylisoxazol-5-yl)piperazine-1-carboxamide] — higher, 104%
- O=C(Nc1cccnc1)N1CCN(c2cccc(-c3ccccc3)c2)CC1 [Example 1, 4-Biphenyl-3-yl-N-pyridin-3-ylpiperazine-1-carboxamide] — higher, 103%
- CC(=O)Nc1ccc(NC(=O)N2CCN(c3cccc(-c4ccsc4)c3)CC2)cc1 [Example 10, N-[4-(Acetylamino)phenyl]-4-[3-(3-thienyl)phenyl]piperazine-1-carboxamide] — higher, 108%
- O=C(Nc1cccnc1)N1CCN(c2cc(-c3ccccc3)ccn2)CC1 [Example 4, 4-(4-Phenylpyridin-2-yl)-N-pyridin-3-ylpiperazine-1-carboxamide] — lower, 74%
- O=C(Nc1cccnn1)N1CCN(c2cc(-c3ccccc3)ccn2)CC1 [Example 6, 4-(4-Phenylpyridin-2-yl)-N-pyridazin-3-ylpiperazine-1-carboxamide] — lower, 91%
- CC(=O)Nc1ccc(NC(=O)N2CCN(c3cccc(-c4ccccc4)c3)CC2)cn1 [Example 3, N-[6-(Acetylamino)pyridin-3-yl]-4-biphenyl-3-ylpiperazine-1-carboxamide] — higher, 101%
- O=C(Nc1cccnc1)N1CCN(c2ccc(-c3ccccc3)cc2)CC1 [Example 14, 4-Biphenyl-4-yl-N-pyridin-3-ylpiperazine-1-carboxamide] — higher, 101%
- O=C(Nc1cccnc1)N1CCN(c2cccc(-c3ccoc3)c2)CC1 [Example 13, 4-[3-(3-Furyl)phenyl]-N-pyridin-3-ylpiperazine-1-carboxamide] — higher, 104%
- O=C(Nc1cccnc1)N1CCN(c2ccc(-c3ccccc3)cn2)CC1 [Example 8, 4-(5-Phenylpyridin-2-yl)-N-pyridin-3-ylpiperazine-1-carboxamide] — lower, 98%
- O=C(Nc1cccnc1)N1CCN(c2cccc(-c3ccsc3)c2)CC1 [Example 12, N-Pyridin-3-yl-4-[3-(3-thienyl)phenyl]piperazine-1-carboxamide] — higher, 104%
- Cc1noc(NC(=O)N2CCN(c3ccc(-c4ccccc4)cc3)CC2)c1C [Example 15, 4-Biphenyl-4-yl-N-(3,4-dimethylisoxazol-5-yl)piperazine-1-carboxamide] — higher, 102%
- Cc1noc(NC(=O)N2CCN(c3ccc(-c4ccccc4)cn3)CC2)c1C [Example 7, N-(3,4-Dimethylisoxazol-5-yl)-4-(5-phenylpyridin-2-yl)piperazine-1-carboxamide] — higher, 102%
- Cc1noc(NC(=O)N2CCN(c3cc(-c4ccccc4)ccn3)CC2)c1C [Example 5, N-(3,4-Dimethylisoxazol-5-yl)-4-(4-phenylpyridin-2-yl)piperazine-1-carboxamide] — lower, 94%
